Experimental data: article PMC8500670, “A selective WDR5 degrader inhibits acute myeloid leukemia in patient-derived mouse models” (Science translational medicine, 2021)
Where two headings read alike, the source gives them in different places.

What was measured:
Assay in all cases: biochemical
Design in all cases: protein methyltransferase selectivity panel, enzyme activity relative to DMSO controls, single concentration in duplicate
G9a = biological target: T1, G9a (Homo sapiens, UniProt Q96KQ7); conditions: Substrate:=Histone H3 1-21
T1 construct: gene EHMT2
T1 sequence (Q96KQ7 1-1210): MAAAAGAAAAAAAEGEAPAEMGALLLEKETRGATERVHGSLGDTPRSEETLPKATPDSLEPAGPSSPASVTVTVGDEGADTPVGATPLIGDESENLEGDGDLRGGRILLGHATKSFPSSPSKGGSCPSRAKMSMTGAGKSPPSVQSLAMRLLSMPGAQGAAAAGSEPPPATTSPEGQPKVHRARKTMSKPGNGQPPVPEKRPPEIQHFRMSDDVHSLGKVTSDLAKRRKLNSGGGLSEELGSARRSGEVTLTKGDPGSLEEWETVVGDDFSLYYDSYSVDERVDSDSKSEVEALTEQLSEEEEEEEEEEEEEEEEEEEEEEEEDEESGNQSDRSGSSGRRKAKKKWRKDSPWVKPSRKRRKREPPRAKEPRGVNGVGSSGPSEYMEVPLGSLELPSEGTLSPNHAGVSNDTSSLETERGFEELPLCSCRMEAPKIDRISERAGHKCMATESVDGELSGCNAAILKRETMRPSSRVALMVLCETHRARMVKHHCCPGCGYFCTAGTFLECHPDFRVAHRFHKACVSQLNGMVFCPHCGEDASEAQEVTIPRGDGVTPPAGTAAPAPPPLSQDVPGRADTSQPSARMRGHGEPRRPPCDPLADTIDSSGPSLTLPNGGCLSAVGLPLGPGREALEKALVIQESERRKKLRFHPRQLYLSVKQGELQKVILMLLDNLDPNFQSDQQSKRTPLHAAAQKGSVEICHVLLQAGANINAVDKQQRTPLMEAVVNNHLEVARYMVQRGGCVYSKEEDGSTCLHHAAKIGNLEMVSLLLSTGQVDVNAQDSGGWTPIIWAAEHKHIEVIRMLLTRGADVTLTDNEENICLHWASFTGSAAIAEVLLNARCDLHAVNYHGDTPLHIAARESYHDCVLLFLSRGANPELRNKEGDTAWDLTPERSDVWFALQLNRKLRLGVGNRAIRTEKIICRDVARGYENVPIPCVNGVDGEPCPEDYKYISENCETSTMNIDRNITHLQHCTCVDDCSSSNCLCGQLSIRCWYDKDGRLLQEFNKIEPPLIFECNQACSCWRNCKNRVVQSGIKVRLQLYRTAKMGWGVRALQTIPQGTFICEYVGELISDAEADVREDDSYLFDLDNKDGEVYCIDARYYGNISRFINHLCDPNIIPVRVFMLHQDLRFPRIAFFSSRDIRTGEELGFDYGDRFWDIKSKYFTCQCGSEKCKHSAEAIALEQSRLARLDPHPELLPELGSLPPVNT
Protocol: (§1) We next assessed selectivity of MS67 against 22 protein methyltransferases (table S2) and a broad panel of common drug targets including 45 kinases (table S3) and 44 G protein–coupled receptors (GPCR), ion channels, and transporters (table S4). […] We subsequently determined that MS67 had moderate binding affinity (Ki = 1.0 ± 0.8 μM) to Sigma 2 receptor (fig. S10).

PRMT8 = PRMT8 (Homo sapiens, UniProt Q9NR22); conditions: Substrate:=Histone H4
PRMT8, sequence (Q9NR22 whole entry): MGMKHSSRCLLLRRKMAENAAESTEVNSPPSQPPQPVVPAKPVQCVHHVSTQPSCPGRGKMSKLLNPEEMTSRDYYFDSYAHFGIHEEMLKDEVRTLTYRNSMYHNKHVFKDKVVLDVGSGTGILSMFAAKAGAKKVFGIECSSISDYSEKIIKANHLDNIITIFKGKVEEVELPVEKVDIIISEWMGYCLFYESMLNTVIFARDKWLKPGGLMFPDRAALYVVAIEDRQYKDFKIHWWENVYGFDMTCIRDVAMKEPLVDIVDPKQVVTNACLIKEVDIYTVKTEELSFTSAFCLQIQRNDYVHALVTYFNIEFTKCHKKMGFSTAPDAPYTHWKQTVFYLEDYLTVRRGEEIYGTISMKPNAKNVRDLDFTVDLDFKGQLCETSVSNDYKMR
Protocol: as §1

SETD2 = SETD2 (Homo sapiens, UniProt Q9BYW2); conditions: Substrate:=Nucleosomes
SETD2, sequence (Q9BYW2 whole entry): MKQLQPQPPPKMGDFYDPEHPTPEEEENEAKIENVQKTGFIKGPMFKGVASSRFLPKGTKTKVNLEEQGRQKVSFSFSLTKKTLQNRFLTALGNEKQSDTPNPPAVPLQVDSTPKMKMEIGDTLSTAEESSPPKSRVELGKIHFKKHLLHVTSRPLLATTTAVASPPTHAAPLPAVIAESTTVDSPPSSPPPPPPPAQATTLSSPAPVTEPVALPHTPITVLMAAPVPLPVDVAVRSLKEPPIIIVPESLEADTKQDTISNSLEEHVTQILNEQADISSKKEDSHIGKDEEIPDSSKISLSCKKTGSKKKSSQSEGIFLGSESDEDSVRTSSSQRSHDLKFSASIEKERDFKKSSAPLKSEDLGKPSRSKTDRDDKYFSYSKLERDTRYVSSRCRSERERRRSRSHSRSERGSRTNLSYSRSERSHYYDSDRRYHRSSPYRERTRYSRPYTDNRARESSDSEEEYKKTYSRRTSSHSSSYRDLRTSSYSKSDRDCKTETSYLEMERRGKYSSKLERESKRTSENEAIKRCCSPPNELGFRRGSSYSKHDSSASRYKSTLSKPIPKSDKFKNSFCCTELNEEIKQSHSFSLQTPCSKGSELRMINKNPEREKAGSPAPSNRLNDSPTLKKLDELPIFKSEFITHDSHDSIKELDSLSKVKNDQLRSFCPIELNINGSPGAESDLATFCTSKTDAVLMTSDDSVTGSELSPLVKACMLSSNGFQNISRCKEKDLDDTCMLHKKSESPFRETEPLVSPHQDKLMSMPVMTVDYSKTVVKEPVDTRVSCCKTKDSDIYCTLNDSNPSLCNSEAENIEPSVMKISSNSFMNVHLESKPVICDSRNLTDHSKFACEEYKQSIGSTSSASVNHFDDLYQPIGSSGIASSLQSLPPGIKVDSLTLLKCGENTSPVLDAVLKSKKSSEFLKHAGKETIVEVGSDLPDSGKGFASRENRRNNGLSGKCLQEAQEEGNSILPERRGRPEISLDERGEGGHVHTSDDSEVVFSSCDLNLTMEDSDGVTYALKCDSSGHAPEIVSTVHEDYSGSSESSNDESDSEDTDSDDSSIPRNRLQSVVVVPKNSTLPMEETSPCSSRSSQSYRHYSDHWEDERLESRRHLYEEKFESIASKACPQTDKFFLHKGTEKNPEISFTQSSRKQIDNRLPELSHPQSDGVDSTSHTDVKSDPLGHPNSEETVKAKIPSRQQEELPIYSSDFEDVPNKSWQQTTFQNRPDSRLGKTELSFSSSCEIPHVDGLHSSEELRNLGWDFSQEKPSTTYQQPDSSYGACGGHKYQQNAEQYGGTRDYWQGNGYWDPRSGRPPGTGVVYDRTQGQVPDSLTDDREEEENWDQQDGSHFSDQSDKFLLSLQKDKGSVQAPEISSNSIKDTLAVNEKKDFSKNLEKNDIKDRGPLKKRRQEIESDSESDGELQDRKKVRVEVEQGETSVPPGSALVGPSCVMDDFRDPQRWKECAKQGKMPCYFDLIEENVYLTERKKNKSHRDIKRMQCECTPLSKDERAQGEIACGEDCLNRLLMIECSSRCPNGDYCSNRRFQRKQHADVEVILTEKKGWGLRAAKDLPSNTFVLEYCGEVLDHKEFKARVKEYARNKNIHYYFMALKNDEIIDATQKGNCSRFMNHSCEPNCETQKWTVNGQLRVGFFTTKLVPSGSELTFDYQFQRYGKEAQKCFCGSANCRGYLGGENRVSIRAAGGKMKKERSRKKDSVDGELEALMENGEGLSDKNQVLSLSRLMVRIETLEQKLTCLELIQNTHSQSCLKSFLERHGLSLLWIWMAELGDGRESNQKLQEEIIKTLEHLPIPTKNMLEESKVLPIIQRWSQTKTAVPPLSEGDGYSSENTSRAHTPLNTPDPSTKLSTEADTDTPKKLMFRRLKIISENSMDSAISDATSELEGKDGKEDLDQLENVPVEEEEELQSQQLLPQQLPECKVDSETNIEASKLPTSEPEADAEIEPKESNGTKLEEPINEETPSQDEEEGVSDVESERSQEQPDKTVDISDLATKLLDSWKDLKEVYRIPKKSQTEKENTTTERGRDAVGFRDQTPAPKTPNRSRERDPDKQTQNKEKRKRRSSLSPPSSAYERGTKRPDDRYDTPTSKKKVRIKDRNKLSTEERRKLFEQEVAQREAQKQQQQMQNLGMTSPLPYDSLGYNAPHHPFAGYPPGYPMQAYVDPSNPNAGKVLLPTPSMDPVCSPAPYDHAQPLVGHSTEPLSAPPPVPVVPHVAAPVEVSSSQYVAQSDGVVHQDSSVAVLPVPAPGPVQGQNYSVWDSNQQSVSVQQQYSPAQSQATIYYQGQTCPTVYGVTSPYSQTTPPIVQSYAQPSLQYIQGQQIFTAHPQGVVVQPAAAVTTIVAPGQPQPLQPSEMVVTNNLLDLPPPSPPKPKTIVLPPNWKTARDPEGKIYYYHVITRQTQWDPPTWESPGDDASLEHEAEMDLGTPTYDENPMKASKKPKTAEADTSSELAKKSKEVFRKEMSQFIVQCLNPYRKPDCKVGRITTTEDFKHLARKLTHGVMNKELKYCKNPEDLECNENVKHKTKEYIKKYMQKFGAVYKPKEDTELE
Protocol: as §1

SUV39H1 = biological target: T2, SUV39H1 (Homo sapiens, UniProt O43463); conditions: Substrate:=Histone H3
T2 sequence (O43463 1-412): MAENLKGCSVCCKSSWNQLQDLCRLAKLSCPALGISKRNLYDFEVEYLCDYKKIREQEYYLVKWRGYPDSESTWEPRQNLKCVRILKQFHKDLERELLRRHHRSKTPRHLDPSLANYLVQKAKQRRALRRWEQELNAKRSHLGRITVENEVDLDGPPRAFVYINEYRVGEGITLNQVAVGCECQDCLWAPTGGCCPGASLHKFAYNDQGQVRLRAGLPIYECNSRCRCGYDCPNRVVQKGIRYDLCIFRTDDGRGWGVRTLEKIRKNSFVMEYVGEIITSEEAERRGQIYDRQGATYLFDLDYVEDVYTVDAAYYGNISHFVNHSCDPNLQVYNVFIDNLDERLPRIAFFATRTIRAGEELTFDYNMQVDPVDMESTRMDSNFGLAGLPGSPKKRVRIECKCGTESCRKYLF
Protocol: as §1

[1] = read-out: Enzyme % Activity (relative to DMSO controls) / MS67 / 10 / Data 1:
[2] = read-out: Enzyme % Activity (relative to DMSO controls) / MS67 / 10 / Data 2:

In the case of `Cc1ncsc1-c1ccc([C@H](C)NC(=O)[C@@H]2C[C@@H](O)CN2C(=O)[C@@H](NC(=O)CNC(=O)c2ccc(F)c(-c3ccc(N4C[C@@H](C)N(C)[C@@H](C)C4)c(NC(=O)c4c[nH]c(=O)cc4C(F)(F)F)c3)c2)C(C)(C)C)cc1` [MS67], the remaining activity at 10 µM (G9a; [1]) is reported as 93%, the remaining activity at 10 µM (G9a; [2]) is reported as 90.9% and the remaining activity at 10 µM (PRMT8; [1]) is reported as 102%. It also gave a remaining activity at 10 µM (PRMT8; [2]) of 98.1%, a remaining activity at 10 µM (SETD2; [1]) of 112% and a remaining activity at 10 µM (SETD2; [2]) of 110%. The remaining activity at 10 µM (SUV39H1; [1]) was 96% and the remaining activity at 10 µM (SUV39H1; [2]) was 105%.
